We go through 19 molecules from ChEMBL document CHEMBL1201862, “PubChem BioAssay data set” (2004).

Test [1] deals with T1, Cytochrome P450 3A4 (Homo sapiens, UniProt P08684). The following applies: Potency.
The nature of test [2]: A cytotoxicity screen of small molecule inhibitors of the PhoP region in Salmonella typhi identified in the primary screen. [Related pubchem assays: 1850, 1864, 1985 ]. It is filed as functional.
Test [3] relates to Streptococcus sp. 'group A'. The test can be described thus: growth inhibition of control SK(-) GAS strain, dose response, counter-screen for streptokinase expression inhibitor project, luminescence, kanamycin, BacTiterGlo, confirmation (AID 1900). It is filed as functional, organism-based.
A further test addresses T2, Streptokinase A (Streptococcus pyogenes serotype M1, UniProt P10520).
T2 sequence (P10520 whole entry): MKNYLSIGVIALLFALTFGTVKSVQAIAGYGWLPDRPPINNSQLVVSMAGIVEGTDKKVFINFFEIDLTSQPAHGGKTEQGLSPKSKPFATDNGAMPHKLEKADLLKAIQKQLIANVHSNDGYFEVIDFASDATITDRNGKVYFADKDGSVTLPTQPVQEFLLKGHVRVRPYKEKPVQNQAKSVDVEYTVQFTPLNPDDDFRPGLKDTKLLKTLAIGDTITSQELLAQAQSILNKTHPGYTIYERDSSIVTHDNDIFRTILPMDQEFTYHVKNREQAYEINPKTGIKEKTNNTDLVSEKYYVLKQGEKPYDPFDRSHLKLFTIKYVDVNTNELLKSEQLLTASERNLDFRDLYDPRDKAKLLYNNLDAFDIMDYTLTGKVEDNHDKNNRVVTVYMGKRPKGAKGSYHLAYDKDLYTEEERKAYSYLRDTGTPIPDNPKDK
The test can be described thus: S. pyogenes streptokinase expression inhibitors, potency, dose response, plasminogen activation absorbance, OD405 (AID 1914).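 Note: secreted streptokinase activity via plasminogen activation per viability signal from cell pellet.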 It is filed as functional, Streptococcus pyogenes M1 GAS.

For a further test, the system named is Streptococcus. Kind of test: Group A Streptococcus viability loss, dose response, counter-screen for streptokinase expression inhibitor project, luminescence, BacTiterGlo (AID 1915).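 Note: potency for reduction of bacterial viability or growth.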 It is filed as functional, organism-based. In general terms: The purpose of a counterscreen is to sort out artefacts and off-target activity.
The test system of another test is HeLa. The test can be described thus: HeLa cell cytotoxicity, dose response, cytotoxicity control, 24 h, cherry-picked samples (AID 504726).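 Note: potency for cytotoxicity as loss of luminescence signal.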 It is filed as functional, cell-based. Conditions: Homo sapiens.
For another test, the target named is T3, fMet-Leu-Phe receptor (Homo sapiens, UniProt P21462).
T3 sequence (P21462 whole entry): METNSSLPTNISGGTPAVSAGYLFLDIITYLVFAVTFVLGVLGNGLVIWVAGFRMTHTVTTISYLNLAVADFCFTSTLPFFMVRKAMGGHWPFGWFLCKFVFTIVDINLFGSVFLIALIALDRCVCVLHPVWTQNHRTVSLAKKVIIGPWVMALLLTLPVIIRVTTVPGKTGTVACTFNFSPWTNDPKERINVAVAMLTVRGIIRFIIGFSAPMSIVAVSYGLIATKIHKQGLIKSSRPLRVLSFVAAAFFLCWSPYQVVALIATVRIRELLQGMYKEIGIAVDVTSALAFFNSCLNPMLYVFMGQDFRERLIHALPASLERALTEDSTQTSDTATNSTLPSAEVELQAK
Kind of test: FPR ligands, dose response (AID 519). It is filed as functional.

Test [4] has as its target T1, Cytochrome P450 3A4.
Test [5] in a line: THP-1 cell cytotoxicity, dose response, cytotoxicity control for Vif-APOBEC3G degradation inhibitor project, THP-1 cells (AID 1117359). It is filed as functional. The following applies: Human immunodeficiency virus 1, THP-1.
The target of the next test is Cytochrome P450 2D6 (Homo sapiens, UniProt P10635).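 Note: CYP2D6 member of a cytochrome P450 panel assay.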
Cytochrome P450 2D6, sequence (P10635 whole entry): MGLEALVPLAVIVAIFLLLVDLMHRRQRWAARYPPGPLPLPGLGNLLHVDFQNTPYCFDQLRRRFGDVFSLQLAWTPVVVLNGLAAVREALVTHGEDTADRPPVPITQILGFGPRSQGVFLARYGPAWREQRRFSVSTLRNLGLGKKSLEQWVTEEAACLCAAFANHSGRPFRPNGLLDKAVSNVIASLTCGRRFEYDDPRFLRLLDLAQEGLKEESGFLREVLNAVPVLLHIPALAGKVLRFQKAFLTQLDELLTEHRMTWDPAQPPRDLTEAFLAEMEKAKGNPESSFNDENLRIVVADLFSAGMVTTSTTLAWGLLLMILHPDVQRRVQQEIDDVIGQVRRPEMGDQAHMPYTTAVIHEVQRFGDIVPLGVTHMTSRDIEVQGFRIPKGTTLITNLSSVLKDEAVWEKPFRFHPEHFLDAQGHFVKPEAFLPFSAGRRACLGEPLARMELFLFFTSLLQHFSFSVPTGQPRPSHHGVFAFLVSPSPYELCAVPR
The next test deals with Paired box protein Pax-8 (Homo sapiens, UniProt Q06710). Kind of test: inhibitors of PAX8-driven TPO luciferase reporter, dose response, RMG-I cells, cherry-pick (AID 687027).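 Note: luciferase reporter driven by Pax8 target thyroperoxidase promoter measured by SteadyGlo luminescence.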 It is filed as functional, cell-based. On the technique in general: In a reporter assay the amount or activity of a reporter protein is the signal.
Paired box protein Pax-8, sequence (Q06710 whole entry): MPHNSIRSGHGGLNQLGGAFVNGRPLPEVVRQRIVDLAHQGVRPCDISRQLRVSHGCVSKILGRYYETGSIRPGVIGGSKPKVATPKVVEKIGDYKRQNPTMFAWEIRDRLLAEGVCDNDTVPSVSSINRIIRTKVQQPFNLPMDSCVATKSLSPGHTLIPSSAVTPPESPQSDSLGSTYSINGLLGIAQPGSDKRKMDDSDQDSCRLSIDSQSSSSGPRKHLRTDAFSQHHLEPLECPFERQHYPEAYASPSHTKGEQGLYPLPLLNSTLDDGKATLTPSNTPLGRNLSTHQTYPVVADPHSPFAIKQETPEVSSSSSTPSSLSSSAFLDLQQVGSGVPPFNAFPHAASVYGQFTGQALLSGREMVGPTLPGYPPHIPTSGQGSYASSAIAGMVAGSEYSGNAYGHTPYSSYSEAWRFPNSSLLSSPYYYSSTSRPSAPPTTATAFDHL
Test [6] in a line: NIH:OVCAR-3 ovarian cancer cell cytotoxicity, dose response, PAX8 inhibitor project, plate reader, dry powder samples (AID 743044). It is filed as functional, cell-based.
The nature of test [7]: cytotoxicity in OVCAR8 ovarian cancer cells, dose response, PAX8 project, cell-based, plate reader, dry powder samples (AID 743197). It is filed as functional. The following applies: OVCAR-8.
The nature of test [8]: THP-1 cell cytotoxicity, dose response, cytotoxicity control for non-replicating M. tuberculosis project (AID 489025). It is filed as functional.
A further test can be described thus: cells. It is filed as functional.
Test [9] in a line: A549 cell cytotoxicity, dose response, cytotoxicity control, plate reader, cherry-pick, antagonist series (AID 743412). It is filed as functional, cell-based.
Test [10] in a line: HepG2 cell cytotoxicity, dose response, cytotoxicity control, plate reader, cherry-pick, antagonist series (AID 743416). It is filed as functional, cell-based.
The nature of test [11]: LGR2 antagonists, dose response, cell-based, HEK293, CRE-luciferase reporter, cherry pick, set 2 (AID 743343).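 Note: transfected cells were stimulated with diluted bursicon conditioned medium after compound addition.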 It is filed as functional.
A short description of test [12]: MC4R antagonists, dose response, counter-screen for LGR2 antagonist project, cell-based, plate reader, cherry pick (AID 743444).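 Note: transfected HEK 293 cells stimulated with alpha-MSH peptide; potency of inhibitors of the alpha-MSH evoked signal.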 It is filed as functional.
Test [13] can be described thus: HEK293 cell cytotoxicity, dose response, cytotoxicity control, plate reader, cherry-picked samples (AID 743446). It is filed as functional, cell-based.
The nature of test [14]: inhibitors of firefly luciferase expression or activity, dose response, H4 neuroglioma cells, luminescence (AID 1990). It is filed as functional, cell-based.
A short description of test [15]: Luminescence Cell-Based Dose Response HTS to Identify Inhibitors of 5'UTR Stem-Loop Driven Prion Protein mRNA Translation in H4 Neuroglioblastoma Cells. [Related pubchem assays: 1827 (Project Summary), 1813 (Primary HTS)]. It is filed as functional.
Test [16] deals with T4, Heat shock factor protein 1 (Mus musculus, UniProt P38532).
T4 sequence (P38532 whole entry): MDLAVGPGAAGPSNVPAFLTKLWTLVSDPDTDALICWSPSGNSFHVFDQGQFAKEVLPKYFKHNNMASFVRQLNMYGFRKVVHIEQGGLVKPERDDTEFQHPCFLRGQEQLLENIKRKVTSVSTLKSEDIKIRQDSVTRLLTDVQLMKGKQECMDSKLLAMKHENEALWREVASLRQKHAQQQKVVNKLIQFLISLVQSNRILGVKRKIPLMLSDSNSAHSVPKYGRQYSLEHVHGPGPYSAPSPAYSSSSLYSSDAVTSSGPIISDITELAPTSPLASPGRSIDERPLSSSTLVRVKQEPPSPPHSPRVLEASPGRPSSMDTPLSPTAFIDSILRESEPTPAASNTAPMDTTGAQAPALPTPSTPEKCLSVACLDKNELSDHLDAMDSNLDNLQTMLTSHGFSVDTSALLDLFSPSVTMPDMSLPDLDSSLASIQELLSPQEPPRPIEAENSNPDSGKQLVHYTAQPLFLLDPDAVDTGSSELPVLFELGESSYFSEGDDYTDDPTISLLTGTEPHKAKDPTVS
Kind of test: inhibition of MG132-induced HSE-luciferase signal, confirmation, cell-based, NIH3T3, luminescence, dose retest (AID 2382).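 Note: NIH3T3 fibroblasts with HSF1-driven luciferase reporter stressed by proteasome inhibitor MG132; luminescence from HSF1-driven luciferase expression after 8 hours of MG132 stress.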 It is filed as functional.

Test [17] is described as follows: inhibitors of SNCA 5'UTR-driven reporter translation, confirmation, H4 neuroglioma cells, luminescence (AID 1988). It is filed as functional, cell-based.
The target in test [18] is Luciferin 4-monooxygenase (Photinus pyralis, UniProt P08659). Kind of test: firefly luciferase enzyme inhibitors, dose response, biochemical, luminescence (AID 1891).
Luciferin 4-monooxygenase, sequence (P08659 whole entry): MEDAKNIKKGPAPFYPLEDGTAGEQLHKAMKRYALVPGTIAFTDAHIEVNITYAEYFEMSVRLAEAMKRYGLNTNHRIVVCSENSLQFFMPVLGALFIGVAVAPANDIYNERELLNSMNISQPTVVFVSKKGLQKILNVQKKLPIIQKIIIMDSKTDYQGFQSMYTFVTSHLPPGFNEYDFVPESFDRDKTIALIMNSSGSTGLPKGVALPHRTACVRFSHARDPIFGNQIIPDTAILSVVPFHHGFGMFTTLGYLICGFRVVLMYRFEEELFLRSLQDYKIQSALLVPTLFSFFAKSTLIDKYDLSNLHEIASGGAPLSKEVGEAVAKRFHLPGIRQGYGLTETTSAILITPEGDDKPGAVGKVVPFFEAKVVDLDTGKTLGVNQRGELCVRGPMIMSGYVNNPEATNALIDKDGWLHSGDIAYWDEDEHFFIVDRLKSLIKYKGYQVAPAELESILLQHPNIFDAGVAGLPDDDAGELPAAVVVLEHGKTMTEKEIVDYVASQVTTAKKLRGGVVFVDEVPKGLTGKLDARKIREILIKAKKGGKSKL
Test [19] is described as follows: Luminescence Cell-Based Dose Confirmation HTS to Identify Inhibitors of Platelet Dense Granule Release. [Related pubchem assays: 1663 (Primary HTS), 1678 (Summary of Project)]. It is filed as functional.

By AC50 is commonly meant the concentration giving half of the maximal activity seen. The EC50 is the concentration giving half of the maximal effect. As a reminder, the Ki is a measure of affinity in units of concentration, obtained from inhibition or displacement. In general, CC50 refers to the concentration giving 50% cytotoxicity. As usually defined, the IC50 is the point on the concentration scale where inhibition reaches its midpoint.

The source made the active and inactive calls.

T1 sequence (P08684 whole entry): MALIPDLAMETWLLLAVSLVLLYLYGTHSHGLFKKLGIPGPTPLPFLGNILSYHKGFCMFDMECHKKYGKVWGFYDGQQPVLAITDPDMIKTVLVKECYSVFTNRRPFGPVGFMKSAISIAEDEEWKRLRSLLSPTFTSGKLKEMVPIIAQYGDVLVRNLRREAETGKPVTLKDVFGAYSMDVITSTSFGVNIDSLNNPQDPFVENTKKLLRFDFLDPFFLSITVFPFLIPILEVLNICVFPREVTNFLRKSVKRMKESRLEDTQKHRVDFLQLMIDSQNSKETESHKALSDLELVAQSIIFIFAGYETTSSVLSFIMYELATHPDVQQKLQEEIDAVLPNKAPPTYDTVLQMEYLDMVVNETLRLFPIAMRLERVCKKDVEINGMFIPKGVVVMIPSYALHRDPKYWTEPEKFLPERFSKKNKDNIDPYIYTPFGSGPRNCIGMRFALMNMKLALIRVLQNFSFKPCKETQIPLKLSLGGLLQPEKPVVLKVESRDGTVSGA

In the case of `CN(C)c1ccc(/C=C2\CCCN=C2c2cccnc2)cc1`, the concentration at half-maximal activity (AC50) at Cytochrome P450 3A4 [1] was 10 µM (inconclusive).
Turning to `C1=Nc2ccccc2CN1c1ccccc1`, the EC50 in test [2] was > 50 µM (active).
On to `CCN(c1ccc(C)cc1C)S(=O)(=O)c1nnc(NC(=O)c2ccco2)s1`, for which the EC50 in test [3] is 2.15 µM (active); on Streptokinase A it was 17.5 µM (active); in the test on Streptococcus it was 43.1 µM (active). Besides, the AC50 in the test on HeLa was 60.2 µM (active).
In the case of `COc1cccc(NC(=O)CN(C)CC(=O)NCc2ccco2)c1`, the AC50 with HeLa is 115 µM (active).
Turning to `COc1ccc(CC(=O)N(Cc2cc3cc(OC)ccc3nc2O)C(C)C)cc1`, in [2], the EC50 was > 50 µM (active).
Take `COc1ccc(C2C(C(=O)c3ccco3)=C(O)C(=O)N2Cc2cccnc2)cc1OC` (stereo not given): the Ki on fMet-Leu-Phe receptor was > 66.7 µM (inactive).
Take `CCOc1cc(C2C(C(=O)c3ccc(C)o3)=C(O)C(=O)N2CCc2ccccc2)ccc1O` (stereo not given): the Ki at fMet-Leu-Phe receptor was 30.4 µM (inactive).
For the molecule `Cc1nc2c(C#N)c(C)nn2c(O)c1Cc1ccccc1`, the Ki on fMet-Leu-Phe receptor is 50 µM (inactive). Besides, the half-maximal activity concentration (AC50) on Cytochrome P450 3A4 [4] was 25.1 µM (inconclusive).
As to `O=C(O)CN(CC(=O)O)Cc1cc2c(-c3ccccc3C(=O)O)c3cc(CN(CC(=O)O)CC(=O)O)c(=O)cc-3oc2cc1O`, the AC50 on Cytochrome P450 3A4 [1] was 20 µM (inconclusive).
As to `Oc1ccc(C2Nc3cccc4cccc(c34)N2)c(O)c1`, the CC50 in [5] is > 40 µM (active). On Cytochrome P450 2D6, the AC50 was 25.1 µM (inconclusive).
On to `C[C@@H]1CCCCO[C@H](CN(C)Cc2ccc(Cl)c(Cl)c2)[C@H](C)CN([C@@H](C)CO)C(=O)c2cc(NC(=O)Nc3ccc(C(F)(F)F)cc3)ccc2O1`, for which the AC50 on Paired box protein Pax-8 was 5.49 µM (active); in test [6] it was 20.1 µM (active); in [7] it was 51.1 µM (active).
Regarding `Cc1ccc(C(=O)n2c(N)nc3ccccc32)cc1`, the EC50 in test [3] is 13.2 µM (active); at Streptokinase A, > 150 µM (not active); in the test with Streptococcus it was 115 µM (active). In addition, the CC50 in [8] was > 40 µM (active). For the same molecule, the IC50 in the test “cells” is 6.64 µM (active). The AC50 in [9] is 24.9 µM (active); in test [10], > 52 µM (inactive); in [11], 1.44 µM (active); in test [12], 1.43 µM (active); in test [13], > 52 µM (inactive).
As to `N#Cc1cccc(-c2ccc3c(c2)[C@@H]2[C@@H](CCN2C(=O)C2CCCCC2)[C@@H](CO)N3)c1`, the AC50 on Paired box protein Pax-8 is 17.8 µM (active); in [7], 61.9 µM (active).
As for `O=C(Nc1ccc(-c2nc3cccnc3s2)cc1)C1CCCO1` (stereo not given), the EC50 in test [14] is 6.46 µM (inconclusive); in test [15] it was 6.12 µM (active); in [16], 11.3 µM (active); in test [17], 4.56 µM (active); in [18], 6.36 µM (active); in test [19] it was 4.58 µM (active). The AC50 in test [9] is > 52 µM (inactive); in test [11] it was 1.98 µM (active); in [12], 2.45 µM (active); in test [13] it was 38.4 µM (active).
Regarding `COC(=O)[C@@H]1C[C@@]2(O)[C@H](O)[C@H](O)[C@H](O)C[C@H]2N1Cc1c(F)cccc1Cl`, the AC50 on Cytochrome P450 3A4 [1] was 25.1 µM (inconclusive).
Turning to `O=C(CCn1cccc1)Nc1ccc(OC(F)(F)F)cc1`, in [2], the EC50 is > 50 µM (active).
As to `COc1ccc(C2=NCC(=O)N(CC(=O)NCc3ccco3)c3sc4c(c32)CCCC4)cc1OC`, the CC50 in test [5] is > 40 µM (active).
Turning to `COCCNC(=O)[C@H](C)/C=C/C(NC(=O)OCc1ccccc1)c1ccc(C(=O)OC)cc1` (stereo not given in full), the AC50 at Cytochrome P450 3A4 [1] was 7.94 µM (inconclusive).
Regarding `CCOC(=O)C(C)(C)N(Cc1ccccc1C)S(=O)(=O)c1ccc(Cl)c([N+](=O)[O-])c1`, in the test on HeLa, the AC50 is 29.8 µM (active).
